Measured values taken from ChEMBL document CHEMBL4382259, “Synthesis of novel guttiferone E and xanthochymol derivatives with cytotoxicities by inducing cell apoptosis and arresting the cell cycle phase” (Eur J Med Chem, 2019).

Columns and labels:
Format in all cases: functional, cell-based
MCF7 = assay: Antiproliferative activity against human MCF7 cells after 72 hrs by MTT assay; settings: MCF7, 72 h
K562 = assay: Antiproliferative activity against human K562 cells after 72 hrs by MTT assay; settings: K562, 72 h
A549 = assay: Antiproliferative activity against human A549 cells after 72 hrs by MTT assay; settings: A549, 72 h
HeLa = assay: Antiproliferative activity against human HeLa cells after 72 hrs by MTT assay
HEL = assay: Antiproliferative activity against HEL cells after 72 hrs by MTT assay; settings: Homo sapiens

SMILES | IC50 (MCF7) | IC50 (K562) | IC50 (A549) | IC50 (HeLa) | IC50 (HEL)
C=CCOc1ccc(C(=O)C2=C3OC(C)(C)[C@@H](CC=C(C)C)C[C@@]34C[C@@H](CC=C(C)C)C(C)(C)[C@@](CC=C(C)C)(C2=O)C4=O)cc1OCC=C | > 20 µM | > 20 µM | > 20 µM | 15.8 µM | > 20 µM
CC(C)=CC[C@H]1C[C@@]23C[C@@H](CC=C(C)C)C(C)(C)[C@@](CC=C(C)C)(C(=O)C(C(=O)c4ccc(O)c(OC(=O)c5cccs5)c4)=C2OC1(C)C)C3=O | > 20 µM | 13.9 µM | > 20 µM | 10.8 µM | 9.56 µM
COc1cccc2c1C(=O)c1c(O)c3c(c(O)c1C2=O)C[C@@](O)(C(=O)CO)C[C@@H]3O[C@H]1C[C@H](N)[C@H](O)[C@H](C)O1 [DOXORUBICIN] | 1.74 µM | 0.65 µM | 3.16 µM | 1.69 µM | 0.42 µM
CC(C)=CC[C@H]1C[C@@]23C[C@@H](CC=C(C)C)C(C)(C)[C@@](CC=C(C)C)(C(=O)C(C(=O)c4ccc(OCCCCCBr)c(OCCCCCBr)c4)=C2OC1(C)C)C3=O | > 20 µM | > 20 µM | > 20 µM | > 20 µM | > 20 µM
CCC(=O)Oc1ccc(C(=O)C2=C3OC(C)(C)[C@@H](CC=C(C)C)C[C@@]34C[C@@H](CC=C(C)C)C(C)(C)[C@H]3CCC(C)(C)O[C@]34OC2=O)cc1OC(=O)CC | > 20 µM | > 20 µM | > 20 µM | 15.4 µM | 9.52 µM
CC(=O)Oc1ccc(C(=O)C2=C3OC(C)(C)[C@@H](CC=C(C)C)C[C@@]34C[C@@H](CC=C(C)C)C(C)(C)[C@H]3CCC(C)(C)O[C@]34OC2=O)cc1OC(C)=O | 4.83 µM | > 20 µM | 12.3 µM | 5.32 µM | > 20 µM
CCN(CC)CCCCCOc1ccc(C(=O)C2=C3OC(C)(C)[C@@H](CC=C(C)C)C[C@@]34C[C@@H](CC=C(C)C)C(C)(C)[C@@](CC=C(C)C)(C2=O)C4=O)cc1OCCCCCN(CC)CC | 7.56 µM | > 20 µM | 17.2 µM | 11.3 µM | > 20 µM
CC(C)=CC[C@H]1C[C@@]23C[C@@H](CC=C(C)C)C(C)(C)[C@@](CC=C(C)C)(C(=O)C(C(=O)c4ccc(OC(=O)c5ccccc5)c(OC(=O)c5ccccc5)c4)=C2OC1(C)C)C3=O | > 20 µM | > 20 µM | > 20 µM | > 20 µM | > 20 µM
C#CCOc1ccc(C(=O)C2=C3OC(C)(C)[C@@H](CC=C(C)C)C[C@@]34C[C@@H](CC=C(C)C)C(C)(C)[C@@](CC=C(C)C)(C2=O)C4=O)cc1O | > 20 µM | > 20 µM | > 20 µM | > 20 µM | > 20 µM
CC(C)=CC[C@H]1C[C@@]23C[C@@H](CC=C(C)C)C(C)(C)[C@@](CC=C(C)C)(C(=O)C(C(=O)c4ccc(O)c(O)c4)=C2OC1(C)C)C3=O [CAMBOGIN] | 10.2 µM | 14.1 µM | 19.2 µM | 16.5 µM | 9.24 µM
CC(C)=CC[C@H]1C[C@]23C[C@@H](CC=C(C)C)C(C)(C)[C@H]4CCC(C)(C)O[C@]42OC(=O)C(C(=O)c2ccc(OC(=O)c4ccc(F)cc4)c(OC(=O)c4ccc(F)cc4)c2)=C3OC1(C)C | 16.8 µM | > 20 µM | 11.7 µM | 11.9 µM | > 20 µM
CCCCCC(=O)Oc1ccc(C(=O)C2=C3OC(C)(C)[C@@H](CC=C(C)C)C[C@@]34C[C@@H](CC=C(C)C)C(C)(C)[C@H]3CCC(C)(C)O[C@]34OC2=O)cc1OC(=O)CCCCC | 16.6 µM | > 20 µM | 19.2 µM | 15.4 µM | 19.9 µM
CCCCCCCC(=O)Oc1cc(C(=O)C2=C3OC(C)(C)[C@@H](CC=C(C)C)C[C@@]34C[C@@H](CC=C(C)C)C(C)(C)[C@H]3CCC(C)(C)O[C@]34OC2=O)ccc1O | > 20 µM | 15.3 µM | > 20 µM | > 20 µM | 18.7 µM
C=CC(=O)Oc1ccc(C(=O)C2=C3OC(C)(C)[C@@H](CC=C(C)C)C[C@@]34C[C@@H](CC=C(C)C)C(C)(C)[C@@](CC=C(C)C)(C2=O)C4=O)cc1OC(=O)C=C | 4 µM | > 20 µM | 13.7 µM | 10.1 µM | > 20 µM
CC(C)=CC[C@H]1C[C@@]23C[C@@H](CC=C(C)C)C(C)(C)[C@@](CC=C(C)C)(C(=O)C(C(=O)c4ccc(OCc5ccccc5)c(O)c4)=C2OC1(C)C)C3=O | > 20 µM | > 20 µM | 10.6 µM | 15.9 µM | > 20 µM
COc1ccc(C(=O)C2=C3OC(C)(C)[C@@H](CC=C(C)C)C[C@@]34C[C@@H](CC=C(C)C)C(C)(C)[C@@](CC=C(C)C)(C2=O)C4=O)cc1O | > 20 µM | 14.5 µM | > 20 µM | 10.9 µM | 13.4 µM
CCCCCC(=O)Oc1cc(C(=O)C2=C3OC(C)(C)[C@@H](CC=C(C)C)C[C@@]34C[C@@H](CC=C(C)C)C(C)(C)[C@H]3CCC(C)(C)O[C@]34OC2=O)ccc1O | 15.5 µM | 13.5 µM | 19.5 µM | > 20 µM | 9.53 µM
CC(C)=CCOc1ccc(C(=O)C2=C3OC(C)(C)[C@@H](CC=C(C)C)C[C@@]34C[C@@H](CC=C(C)C)C(C)(C)[C@@](CC=C(C)C)(C2=O)C4=O)cc1O | 18.6 µM | > 20 µM | > 20 µM | 12.2 µM | > 20 µM
C=C(C)[C@@H](CC=C(C)C)C[C@]12C[C@@H](CC=C(C)C)C(C)(C)[C@](CC=C(C)C)(C1=O)c1oc3cc(O)c(O)cc3c(=O)c1C2=O | > 20 µM | > 20 µM | > 20 µM | > 20 µM | > 20 µM
COc1ccc(C(=O)C2=C3OC(C)(C)[C@@H](CC=C(C)C)C[C@@]34C[C@@H](CC=C(C)C)C(C)(C)[C@@](CC=C(C)C)(C2=O)C4=O)cc1OC | > 20 µM | > 20 µM | > 20 µM | 19.7 µM | > 20 µM
CC(C)=CC[C@H]1C[C@@]23C[C@@H](CC=C(C)C)C(C)(C)[C@@](CC=C(C)C)(C(=O)C(C(=O)c4ccc(OCCCCCN5CCOCC5)c(O)c4)=C2OC1(C)C)C3=O | 16 µM | > 20 µM | > 20 µM | > 20 µM | > 20 µM
CC(C)=CC[C@H]1C[C@]23C[C@@H](CC=C(C)C)C(C)(C)[C@H]4CCC(C)(C)O[C@]42OC(=O)C(C(=O)c2ccc(OC(=O)c4ccc(Br)cc4)c(OC(=O)c4ccc(Br)cc4)c2)=C3OC1(C)C | > 20 µM | > 20 µM | > 20 µM | > 20 µM | > 20 µM
C=CC(=O)Oc1cc(C(=O)C2=C3OC(C)(C)[C@@H](CC=C(C)C)C[C@@]34C[C@@H](CC=C(C)C)C(C)(C)[C@@](CC=C(C)C)(C2=O)C4=O)ccc1O | > 20 µM | 10.7 µM | > 20 µM | 19.4 µM | 4.66 µM
CCC(=O)Oc1cc(C(=O)C2=C3OC(C)(C)[C@@H](CC=C(C)C)C[C@@]34C[C@@H](CC=C(C)C)C(C)(C)[C@H]3CCC(C)(C)O[C@]34OC2=O)ccc1O | > 20 µM | 12.1 µM | – | > 20 µM | 9.71 µM
